Laboratory results published in ChEMBL document CHEMBL4680263, “Identification of benzothiazinones containing 2-benzyl-2,7-diazaspiro[3.5]nonane moieties as new antitubercular agents” (Eur J Med Chem, 2020).
In brackets after ≈: the same amount, converted by molar mass.

Experiments:
[1] = test system: Mycobacterium tuberculosis; experiment: Antimycobacterial activity against Mycobacterium tuberculosis H37Rv infected in BALB/c mouse assessed as reduction in colony forming unit in lung at 25 mg/kg, po administered once daily for 5 days a week for 3 weeks (reference value: 5.35 +/- 0.17 log10CFU); type: functional
[2] = Cytotoxicity against African green monkey Vero cells; type: cell-based; details: chlorocebus sabaeus
[3] = AUC (0 to infinity) in BALB/c mouse at 12.5 mg/kg, po measured upto 24 hrs by HPLC analysis; type: ADME, organism-based; set-up: route oral, dose 12.5 mg/kg, time <=24; details: in vivo
[4] = test system: Mycobacterium tuberculosis; experiment: Antimycobacterial activity against Mycobacterium tuberculosis H37Rv ATCC 27294 assessed as inhibition of bacterial growth incubated for 7 days by MABA assay; type: functional; details: H37Rv ATCC 27294, 168 h, time 7 day
[5] = Half life in BALB/c mouse at 2.5 mg/kg, iv measured upto 24 hrs by HPLC analysis; type: ADME, organism-based; details: in vivo
[6] = AUC (0 to infinity) in BALB/c mouse at 2.5 mg/kg, iv measured upto 24 hrs by HPLC analysis; type: ADME, organism-based; set-up: route intravenous, dose 2.5 mg/kg, time <=24; details: in vivo
[7] = Cmax in BALB/c mouse at 2.5 mg/kg, iv measured upto 24 hrs by HPLC analysis; type: ADME, organism-based; set-up: route intravenous, dose 2.5 mg/kg, time <=24; details: in vivo
[8] = Oral bioavailability in BALB/c mouse at 12.5 mg/kg measured upto 24 hrs by HPLC analysis; type: ADME, organism-based; details: in vivo; for bioavailability: BALB/c
[9] = Acute toxicity in BALB/c mouse assessed as mouse survival at 2 g/kg, po observed continuously for 4 hrs and each hr for next 24 hrs and at 8 hrs interval for following 7 days; type: organism-based; details: in vivo, 2000 mg/kg, 168 h, time 7 day
[10] = Half life in BALB/c mouse at 12.5 mg/kg, po measured upto 24 hrs by HPLC analysis; type: ADME, organism-based; details: in vivo
[11] = Tmax in BALB/c mouse at 12.5 mg/kg, po measured upto 24 hrs by HPLC analysis; type: ADME, organism-based; details: in vivo
[12] = Cmax in BALB/c mouse at 12.5 mg/kg, po measured upto 24 hrs by HPLC analysis; type: ADME, organism-based; set-up: route oral, dose 12.5 mg/kg, time <=24; details: in vivo

Work on CC(c1ccc(C(F)(F)F)cc1)N1CC2(CCN(c3nc(=O)c4cc(C(F)(F)F)cc([N+](=O)[O-])c4s3)CC2)C1 (centres undefined) yielded an Activity [1] of over 5 log10CFU, a CC50 [2] of over 64 µg/mL and an AUC(0-inf) [3] of 5500 ng·h/mL. The MIC [4] was under 0.016 µg/mL, the half-life [5] was 9.29 h and the AUC(0-inf) [6] was 2650 ng·h/mL. For the same compound, the Cmax [7] was 1390 ng/mL, the bioavailability [8] was 41.5% and the Activity [9] was “Non-Toxic”. For the same compound, the half-life [10] was 6.69 h, the Tmax [11] was 0.25 h and the Cmax [12] was 1240 ng/mL.
CC(c1ccc(F)c(Cl)c1)N1CC2(CCN(c3nc(=O)c4cc(C(F)(F)F)cc([N+](=O)[O-])c4s3)CC2)C1 (centres undefined) showed an MIC [4] of under 0.016 µg/mL.
For O=c1nc(N2CCN(CC3CCCCC3)CC2)sc2c([N+](=O)[O-])cc(C(F)(F)F)cc12 [MACOZINONE], the Activity [1] was over 5 log10CFU, the CC50 [2] was over 64 µg/mL and the AUC(0-inf) [3] was 912 ng·h/mL. It also gave an MIC [4] of under 0.016 µg/mL, a half-life [5] of 5.14 h and an AUC(0-inf) [6] of 1540 ng·h/mL. For the same compound, the Cmax [7] was 1840 ng/mL, the F ([8]; 12.5 mg/kg, 24 h) was 11.8% and the half-life [10] was 5.07 h. The Tmax [11] was 0.25 h and the Cmax [12] was 734 ng/mL.
In the case of CC(c1cc(F)cc(F)c1)N1CC2(CCN(c3nc(=O)c4cc(C(F)(F)F)cc([N+](=O)[O-])c4s3)CC2)C1 (centres undefined), the Activity [1] is reported as over 5 log10CFU, the CC50 [2] is reported as over 64 µg/mL and the AUC(0-inf) [3] is reported as 609 ng·h/mL. It also gave an MIC [4] of under 0.016 µg/mL, a half-life [5] of 3.25 h and an AUC(0-inf) [6] of 812 ng·h/mL. The Cmax [7] was 723 ng/mL, the bioavailability [8] was 15% and the Activity [9] was “Non-Toxic”. It also gave a half-life [10] of 3.02 h, a Tmax [11] of 0.25 h and a Cmax [12] of 286 ng/mL.
CC(c1ccc(Br)cc1)N1CC2(CCN(c3nc(=O)c4cc(C(F)(F)F)cc([N+](=O)[O-])c4s3)CC2)C1 (centres undefined) showed an MIC [4] of under 0.016 µg/mL.
Compound NNC(=O)c1ccncc1 [ISONIAZID] has an Activity [1] of over 5 log10CFU and an MIC [4] of 0.038 µg/mL (≈ 0.277 µM).
With CC(c1cccc(F)c1)N1CC2(CCN(c3nc(=O)c4cc(C(F)(F)F)cc([N+](=O)[O-])c4s3)CC2)C1 (centres undefined) the MIC [4] was under 0.016 µg/mL.
O=c1nc(N2CCC3(CC2)CN(Cc2ccc(OC(F)(F)F)cc2)C3)sc2c([N+](=O)[O-])cc(C(F)(F)F)cc12 gave an MIC [4] of under 0.016 µg/mL.
Work on CC(c1ccc(OC(F)(F)F)cc1)N1CCC2(CC1)CN(c1nc(=O)c3cc(C(F)(F)F)cc([N+](=O)[O-])c3s1)C2 (centres undefined) yielded an Activity [1] of 4.05 log10CFU, a CC50 [2] of over 64 µg/mL and an MIC [4] of under 0.016 µg/mL. For the same compound, the Activity [9] was “Non-Toxic”.
Compound O=c1nc(N2CCC3(CC2)CN(C(c2ccc(F)cc2)c2ccc(F)cc2)C3)sc2c([N+](=O)[O-])cc(C(F)(F)F)cc12 has an MIC [4] of 0.037 µg/mL (≈ 0.0614 µM).
Work on CO[C@H]1/C=C/O[C@@]2(C)Oc3c(C)c(O)c4c(O)c(c(/C=N/N5CCN(C)CC5)c(O)c4c3C2=O)NC(=O)/C(C)=C\C=C\[C@H](C)[C@H](O)[C@@H](C)[C@@H](O)[C@@H](C)[C@H](OC(C)=O)[C@@H]1C [RIFAMPIN] yielded an MIC [4] of 0.037 µg/mL (≈ 0.045 µM).
In the case of O=c1nc(N2CCC3(CC2)CN(Cc2cc(F)cc(F)c2)C3)sc2c([N+](=O)[O-])cc(C(F)(F)F)cc12, the MIC [4] is reported as under 0.016 µg/mL.
O=c1nc(N2CCC3(CC2)CN(Cc2cccc(F)c2)C3)sc2c([N+](=O)[O-])cc(C(F)(F)F)cc12 gave an MIC [4] of under 0.016 µg/mL.
Work on O=c1nc(N2CCC3(CC2)CN(Cc2ccc(F)cc2)C3)sc2c([N+](=O)[O-])cc(C(F)(F)F)cc12 yielded an MIC [4] of under 0.016 µg/mL.
With O=c1nc(N2CCC3(CC2)CN(Cc2ccc(C(F)(F)F)cc2)C3)sc2c([N+](=O)[O-])cc(C(F)(F)F)cc12 the CC50 [2] was over 64 µg/mL, the MIC [4] was under 0.016 µg/mL and the Activity [9] was “Toxic”.
CC(c1ccc(F)cc1)N1CC2(CCN(c3nc(=O)c4cc(C(F)(F)F)cc([N+](=O)[O-])c4s3)CC2)C1 (centres undefined) showed an MIC [4] of under 0.016 µg/mL.
For O=c1nc(N2CCC3(CC2)CN(Cc2ccc(Br)cc2)C3)sc2c([N+](=O)[O-])cc(C(F)(F)F)cc12, the MIC [4] was under 0.016 µg/mL.
Compound CC(c1ccc(F)cc1F)N1CC2(CCN(c3nc(=O)c4cc(C(F)(F)F)cc([N+](=O)[O-])c4s3)CC2)C1 (centres undefined) has an MIC [4] of under 0.016 µg/mL.
CC(c1ccc(OC(F)(F)F)cc1)N1CC2(CCN(c3nc(=O)c4cc(C(F)(F)F)cc([N+](=O)[O-])c4s3)CC2)C1 (centres undefined) showed an Activity [1] of over 5 log10CFU, a CC50 [2] of over 64 µg/mL and an AUC(0-inf) [3] of 3620 ng·h/mL. For the same compound, the MIC [4] was under 0.016 µg/mL, the half-life [5] was 8.51 h and the AUC(0-inf) [6] was 2990 ng·h/mL. For the same compound, the Cmax [7] was 1640 ng/mL, the bioavailability [8] was 24.2% and the Activity [9] was “Non-Toxic”. It also gave a half-life [10] of 6 h, a Tmax [11] of 0.25 h and a Cmax [12] of 915 ng/mL.
CC(c1ccc(F)c(F)c1)N1CC2(CCN(c3nc(=O)c4cc(C(F)(F)F)cc([N+](=O)[O-])c4s3)CC2)C1 (centres undefined) gave an MIC [4] of under 0.016 µg/mL.
In the case of CC(c1ccc(Cl)cc1)N1CC2(CCN(c3nc(=O)c4cc(C(F)(F)F)cc([N+](=O)[O-])c4s3)CC2)C1 (centres undefined), the MIC [4] is reported as under 0.016 µg/mL.
CC(c1ccc(Cl)c(F)c1)N1CC2(CCN(c3nc(=O)c4cc(C(F)(F)F)cc([N+](=O)[O-])c4s3)CC2)C1 (centres undefined) showed an Activity [1] of over 5 log10CFU, a CC50 [2] of over 64 µg/mL and an AUC(0-inf) [3] of 1940 ng·h/mL. For the same compound, the MIC [4] was under 0.016 µg/mL, the half-life [5] was 7.5 h and the AUC(0-inf) [6] was 1170 ng·h/mL. The Cmax [7] was 709 ng/mL, the bioavailability [8] was 33% and the Activity [9] was “Non-Toxic”. For the same compound, the half-life [10] was 10.1 h, the Tmax [11] was 0.5 h and the Cmax [12] was 313 ng/mL.
CC(c1cc(F)c(F)c(F)c1)N1CC2(CCN(c3nc(=O)c4cc(C(F)(F)F)cc([N+](=O)[O-])c4s3)CC2)C1 (centres undefined) gave an Activity [1] of over 5 log10CFU, a CC50 [2] of over 64 µg/mL and an AUC(0-inf) [3] of 455 ng·h/mL. For the same compound, the MIC [4] was under 0.016 µg/mL, the half-life [5] was 1.86 h and the AUC(0-inf) [6] was 498 ng·h/mL. The Cmax [7] was 463 ng/mL, the bioavailability [8] was 18.3% and the Activity [9] was “Non-Toxic”. The half-life [10] was 2.08 h, the Tmax [11] was 0.25 h and the Cmax [12] was 240 ng/mL.
